Results from patent publication US20220332763A1, “FUSED POLYPEPTIDE AND USE THEREOF” (NANJING ANJI BIOLOGICAL TECHNOLOGY CO., LTD., priority 2019, published 2022).
Where no end group is shown, it is not given here.

Assays:
TGF-β1 = test: Renal fibrosis animal model (ureter ligation), TGF-β1 in serum; type: in vivo; conditions: SD rats with renal fibrosis; 7.5 mg/kg subcutaneous twice a day, 14 days; FIG. 3
Description: A renal fibrosis animal model was established. SD rats were anesthetized with 4% chloral hydrate, injected with 1 mL/100 g intraperitoneally, fixed to an operation board, and sterilized in an operation area for later use. […] Muscular layers and abdominal walls were sewed layer by layer, the suture was disinfected with alcohol. After SD rats woke up, the rats were put into a cage for feeding. In the blank group, ureter was not ligated, and other steps were the same.
Then, the animals fell into a blank group, a model group, and polypeptide administration groups, with 10 animals in each group, and the administration was started on the second day after the operation, twice a day for 14 days. After administration for 14 days, blood was taken and supernatant was taken to detect the content of TGF-β1 in serum.

HYP = test: Bleomycin skin fibrosis model, HYP content in skin tissue; type: in vivo, C57/BL black mice; conditions: bleomycin skin fibrosis mice; 10 mg/kg subcutaneous twice a day, 28 days; FIG. 4
Description: Bleomycin (10 μg/mL) was injected subcutaneously every day for 28 days to form skin fibrosis. During the modeling period, the administration groups were given polypeptide drugs twice a day for treatment. After modeling, the mice were killed on the next day, and the skin tissue of the mouse back was taken to detect the content of HYP in the skin tissue.

[1] = tested on: SD rats with bleomycin-induced pulmonary fibrosis; test: Bleomycin-induced pulmonary fibrosis animal model; type: in vivo; conditions: dosage 10 mg/kg in Table 2, administration 14 days, model group 50
Description: SD rats were anesthetized by intraperitoneal injection of 1 mL/100 g 4% chloral hydrate. After anesthesia, the rats were fixed and their necks were disinfected by using cotton with 75% alcohol. The skin of the rat neck was longitudinally cut with scissors, and the fascia and muscle were longitudinally bluntly torn with tweezers to expose the trachea. A syringe was inserted into the trachea to inject 5 mg/kg bleomycin, while a blank group was injected with an equal amount of normal saline. Then a rat plate was quickly erected and rotated, the rats' breathing was observed, the neck wound was sterilized after rotation and was sewn, and an amoxicillin anti-inflammatory drug was sprinkled on the suture. After the operation, the rats were put back into a dry and clean cage for resting, waiting was performed for awakening. The rats were awakened after about 1-2 hours, and then fed normally. On the 7th day after modeling, modeling group animals randomly fell into a model group, a Nintedanib positive drug group, polypeptide I, II, III, IV, V, VI dosage groups, and a normal control group, and the groups were administered separately for an administration cycle of 14 days. Living situations of rats were observed every day and their weights were weighed. After administration for 14 days, the SD rats were dissected, the lung tissue was taken, and the right lung tissue was placed in a tissue fixative only for fixation, and HE staining and Masson staining and slice analysis were performed.

[2] = tested on: LX-2 hepatic stellate cells; test: In vitro hepatic fibrosis model, MTT assay; type: cell-based; conditions: 1 μmol/L; for Inhibition of proliferation (in words): 24 hours and 48 hours, Example 2; for Optical density value, 12 h / Optical density value, 24 h / Optical density value, 48 h: LX-2 cells, MTT, OD at 570 nm; for Optical density value, 12 h: blank group 0.456 ± 0.012; for Optical density value, 24 h: blank group 0.548 ± 0.01; for Optical density value, 48 h: blank group 0.812 ± 0.016
Description: (§1) The inhibitory effect of a polypeptide on LX-2 hepatic stellate cells was detected by MTT assay. Cells were cultured in a 1640 medium containing 10% of FBS, the […] was made into 4×10^5/mL cell suspension, and 100 μL per well was inoculated into a 96-well plate. After the cells adhered to the wall, the medium was replaced with a serum-free 1640 medium, and the serum-free medium was discarded after 24 hours. The cells were cultured with different polypeptides of 1 μmol/L, and 5 multiple wells were set for each concentration. After 12, 24 and 48 hours separately, 10 μL of MTT was added to each well. After 4 hours, MTT was sucked out, and 150 μL of DMSO was added to each well. After reaction for 5 min, an OD value was measured at 570 nm by a microplate reader.

[3] = tested on: cardiac fibroblasts of rats; test: Myocardial fibrosis model, MTT assay; type: cell-based; conditions: 1 μmol/L; for Inhibition of proliferation of cardiac fibroblasts of rats (in words): 24 hours and 48 hours; for Optical density value, 12 h / Optical density value, 24 h / Optical density value, 48 h: cardiac fibroblasts of rats, MTT, OD at 570 nm; for Optical density value, 12 h: blank group 0.353 ± 0.001; for Optical density value, 24 h: blank group 0.464 ± 0.018; for Optical density value, 48 h: blank group 0.896 ± 0.001
Description: as §1, with “cardiac fibroblasts of rats” for “LX-2 hepatic stellate cells”, “DMEM” for “1640”, “1×10^5/mL” for “4×10^5/mL”

Liver cancer = test: cells; conditions: Homo sapiens, 48 h, read-out: Inhibitory effect (%) on tumor growth
Description: (§2) A plurality of types of human tumor cells were cultured in a 5% CO2 incubator at 37° C. and digested with trypsin when the density was 90% or above. The cells were resuspended in a culture solution and counted, and the cell concentration was adjusted to 2×10^4 cells/mL. The cell suspension was inoculated into a 96-well plate with 100 μL per well, and then cultured overnight in a 5% CO2 incubator at 37° C. After the cells completely adhered to the wall, each polypeptide according to the present invention was added as an administration group, and the culture solution without any drug was used as a blank control group. The solutions were diluted to 1 μmol/L by using a diluent. Each diluent was separately added to the 96-well plate with 100 per well, and the cells continued to be cultured in a 5% CO2 incubator for 48 hours at 37° C. Then 20 μL of MTT was added, and the cells continued to be cultured for 4 hours. The medium was sucked, and 100 μL of DMSO was added to each well for dissolution. Absorbance was measured by a microplate reader at a detection wavelength of 570 nm and a reference wavelength of 630 nm, and the growth inhibition rate was calculated. The formula was as follows: tumor growth inhibition rate (%)=(1−absorbance of the administration group/absorbance of the blank group)*100%. The experiment was repeated independently for 3 times.

Pancreatic cancer = test: cells; conditions: Homo sapiens, 48 h, read-out: Inhibitory effect (%) on tumor growth
Description: as §2

Colorectal cancer = test: cells; conditions: Homo sapiens, 48 h, read-out: Inhibitory effect (%) on tumor growth
Description: as §2

Sarcoma = test: cells; conditions: Homo sapiens, 48 h, read-out: Inhibitory effect (%) on tumor growth
Description: as §2

Melanoma = test: cells; conditions: Homo sapiens, 48 h, read-out: Inhibitory effect (%) on tumor growth
Description: as §2

Ovarian cancer = test: cells; conditions: Homo sapiens, 48 h, read-out: Inhibitory effect (%) on tumor growth
Description: as §2

Uterus cancer = test: tissue or blood; conditions: Homo sapiens, 48 h, read-out: Inhibitory effect (%) on tumor growth
Description: as §2

Thyroid cancer = test: cells; conditions: Homo sapiens, 48 h, read-out: Inhibitory effect (%) on tumor growth
Description: as §2

Breast cancer = test: cells; conditions: Homo sapiens, 48 h, read-out: Inhibitory effect (%) on tumor growth
Description: as §2

Cervical cancer = test: cells; conditions: Homo sapiens, 48 h, read-out: Inhibitory effect (%) on tumor growth
Description: as §2

Head and neck cancer = test: cells; conditions: Homo sapiens, 48 h, read-out: Inhibitory effect (%) on tumor growth
Description: as §2

Lung cancer = test: cells; conditions: Homo sapiens, 48 h, read-out: Inhibitory effect (%) on tumor growth
Description: as §2

Kidney cancer = test: cells; conditions: Homo sapiens, 48 h, read-out: Inhibitory effect (%) on tumor growth
Description: as §2

Esophageal cancer = test: cells; conditions: Homo sapiens, 48 h, read-out: Inhibitory effect (%) on tumor growth
Description: as §2

Prostate cancer = test: cells; conditions: Homo sapiens, 48 h, read-out: Inhibitory effect (%) on tumor growth
Description: as §2

Brain cancer = test: cells; conditions: Homo sapiens, 48 h, read-out: Inhibitory effect (%) on tumor growth
Description: as §2

Gastric cancer = test: cells; conditions: Homo sapiens, 48 h, read-out: Inhibitory effect (%) on tumor growth
Description: as §2

Hemangioma = test: cells; conditions: Homo sapiens, 48 h, read-out: Inhibitory effect (%) on tumor growth
Description: as §2

| Compound | Content of TGF-β1 in serum versus model group (TGF-β1) | Expression of HYP content in tissue versus model group (HYP) | Survival rate (%) [1] | Inhibition of proliferation (in words) [2] | Optical density value, 12 h [2] | Optical density value, 24 h [2] | Optical density value, 48 h [2] | Inhibition of proliferation of cardiac fibroblasts of rats (in words) [3] | Optical density value, 12 h [3] | Optical density value, 24 h [3] | Optical density value, 48 h [3] | further results |
| --- | --- | --- | --- | --- | --- | --- | --- | --- | --- | --- | --- | --- |
| LSKLGGGGTSLDASIIWAMMQNGGGGSDKP [Polypeptide VI, Leu-Ser-Lys-Leu-linker-Thr-Ser-Leu-Asp-Ala-Ser-Ile-Ile-Trp-Ala-Met-Met-Gln-Asn-linker-Ser-Asp-Lys-Pro] | highly significantly different from the model group (**P<0.01) | highly significantly different from the model group (***P<0.001) | 70% | could inhibit the proliferation | 0.453 ± 0.021 | 0.502 ± 0.013 | 0.652 ± 0.018 | could inhibit the proliferation | 0.340 ± 0.012 | 0.412 ± 0.005 | 0.622 ± 0.007 |  |
| CC(=O)O[C@@]12CO[C@@H]1C[C@H](O)[C@@]1(C)C(=O)[C@H](O)C3=C(C)[C@@H](OC(=O)[C@H](O)[C@@H](NC(=O)OC(C)(C)C)c4ccccc4)C[C@@](O)([C@@H](OC(=O)c4ccccc4)[C@H]21)C3(C)C [Docetaxel] |  |  |  |  |  |  |  |  |  |  |  | inhibition at 1 µM (Liver cancer): 74.2 ± 11.7%; inhibition at 1 µM (Pancreatic cancer): 76.7 ± 10.1%; inhibition at 1 µM (Colorectal cancer): 53.5 ± 10.4%; inhibition at 1 µM (Sarcoma): 62.5 ± 8.75%; inhibition at 1 µM (Melanoma): 68.4 ± 6.23%; inhibition at 1 µM (Ovarian cancer): 62.8 ± 20.2%; inhibition at 1 µM (Uterus cancer): 57.2 ± 12.3%; inhibition at 1 µM (Thyroid cancer): 73.2 ± 19.3%; inhibition at 1 µM (Breast cancer): 65.1 ± 10.7%; inhibition at 1 µM (Cervical cancer): 66.6 ± 11.3%; inhibition at 1 µM (Head and neck cancer): 62.5 ± 2.12%; inhibition at 1 µM (Lung cancer): 73.3 ± 7.03%; inhibition at 1 µM (Kidney cancer): 75.5 ± 10.2%; inhibition at 1 µM (Esophageal cancer): 64.4 ± 8.06%; inhibition at 1 µM (Prostate cancer): 78.4 ± 4.21%; inhibition at 1 µM (Brain cancer): 68.1 ± 10.3%; inhibition at 1 µM (Gastric cancer): 74.2 ± 6.38%; inhibition at 1 µM (Hemangioma): 78.8 ± 6.16% |
| Ac-SDKPGGGGTSLDASIIWAMMQNGGGGLSKL (N-terminus assumed) [Polypeptide II, Ser-Asp-Lys-Pro-linker-Thr-Ser-Leu-Asp-Ala-Ser-Ile-Ile-Trp-Ala-Met-Met-Gln-Asn-linker-Leu-Ser-Lys-Leu] | highly significantly different from the model group (***P<0.001) | highly significantly different from the model group (***P<0.001) | 80% | could inhibit the proliferation | 0.463 ± 0.012 | 0.394 ± 0.005 | 0.578 ± 0.005 | could inhibit the proliferation | 0.352 ± 0.004 | 0.367 ± 0.016 | 0.568 ± 0.013 |  |
